According to patent publication US20230135524A1, “ARYL HYDANTOIN HETEROCYCLES AND METHODS OF USE” (The United States of America,as represented by the …, priority 2020, published 2023):

Experiments:
[1] = molecular target: T1, AR (Homo sapiens, UniProt P10275); experiment: AR transcriptional output, ARE-luciferase assay in HEK 293T cells; format: cell-based; settings: for antagonist or inverse agonist activity on AR transcriptional activity (in words): 10 μM, HEK 293T, FIG. 6A; for activity at 10 µM: HEK-293T, read-out: AR antagonist activity (% RLU)
T1 construct: host or cells: HEK 293T
T1 sequence (P10275 1-920): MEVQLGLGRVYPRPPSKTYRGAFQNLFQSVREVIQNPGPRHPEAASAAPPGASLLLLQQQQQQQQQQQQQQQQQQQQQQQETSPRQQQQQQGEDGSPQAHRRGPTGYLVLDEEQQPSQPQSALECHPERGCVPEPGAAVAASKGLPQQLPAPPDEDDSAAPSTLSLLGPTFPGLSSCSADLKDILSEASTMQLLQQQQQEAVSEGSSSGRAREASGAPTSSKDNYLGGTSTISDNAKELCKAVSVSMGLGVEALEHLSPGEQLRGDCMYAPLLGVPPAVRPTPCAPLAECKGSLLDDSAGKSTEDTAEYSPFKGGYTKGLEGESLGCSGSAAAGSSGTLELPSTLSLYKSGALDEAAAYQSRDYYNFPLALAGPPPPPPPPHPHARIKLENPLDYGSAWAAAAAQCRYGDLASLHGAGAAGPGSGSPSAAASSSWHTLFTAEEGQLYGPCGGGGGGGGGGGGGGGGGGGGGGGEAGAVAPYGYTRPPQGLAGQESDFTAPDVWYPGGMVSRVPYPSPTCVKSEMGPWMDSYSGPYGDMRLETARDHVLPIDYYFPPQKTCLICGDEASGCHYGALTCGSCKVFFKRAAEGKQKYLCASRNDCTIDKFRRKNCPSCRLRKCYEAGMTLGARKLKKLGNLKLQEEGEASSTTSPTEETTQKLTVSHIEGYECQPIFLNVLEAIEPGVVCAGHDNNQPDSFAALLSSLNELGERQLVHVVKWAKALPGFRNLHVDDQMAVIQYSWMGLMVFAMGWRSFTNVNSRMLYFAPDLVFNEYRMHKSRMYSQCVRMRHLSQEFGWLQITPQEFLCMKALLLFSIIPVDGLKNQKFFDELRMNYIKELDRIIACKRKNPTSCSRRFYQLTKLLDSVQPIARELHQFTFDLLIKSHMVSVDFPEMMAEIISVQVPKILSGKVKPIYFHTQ
Description: 100% is set to the activity with 200 μM testosterone, and 0% is set to the basal level (no ligand).
Cells were maintained in steroid free media, and stimulated with 200 μM testosterone, followed immediately by administration of exemplary compounds (Table 1, below). RLU is relative luciferase units, relative to DMSO control with 200 μM testosterone alone. Data represent an average of 3 independent experiments performed in triplicate wells per compounds at 10 μM.
Cells were maintained in steroid-free media, and stimulated with 200 μM testosterone, followed immediately by administration of a test compound. […] Compounds were dosed at 10 μM in FIGS. 6A and 6B.
Cells were maintained in steroid-free media, and stimulated with 200 μM testosterone, followed immediately by administration of a test compound.

[2] = test system: LNCaP; experiment: IncuCyte % confluence cell growth inhibition, LNCaP; format: cell-based; settings: Homo sapiens, read-out: IC50 values (μM), LNCaP
Description: (§1) Images were then analyzed to discern the % confluence of cells in each well. IC50 values were calculated from dose response curves of the % cell growth inhibition relative to DMSO control at the same time point per each cell line.

[3] = test system: LNCAP AR; experiment: IncuCyte % confluence cell growth inhibition, LNCAP AR; format: cell-based; settings: read-out: IC50 values (μM), LNCAP AR
Description: as §1

[4] = test system: LAPC4; experiment: IncuCyte % confluence cell growth inhibition, LAPC4; format: cell-based; settings: Homo sapiens, LAPC4, read-out: IC50 values (μM), LAPC4
Description: as §1

[5] = test system: 22Rv1; experiment: IncuCyte % confluence cell growth inhibition, 22Rv1; format: cell-based; settings: Homo sapiens, 22Rv1, read-out: IC50 values (μM), 22Rv1
Description: as §1

[6] = test system: LNCaP ARin vivo; experiment: IncuCyte % confluence cell growth inhibition, LNCaP ARin vivo; format: cell-based; settings: Homo sapiens, read-out: IC50 values (μM), LNCaP ARin vivo
Description: as §1

[7] = test system: LNCaP ARF876L; experiment: IncuCyte % confluence cell growth inhibition, LNCaP ARF876L; format: cell-based; settings: Homo sapiens, AR-positive, AR mutation F876L, % cell growth inhibition relative to DMSO
Description: as §1

[8] = test system: PC3; experiment: IncuCyte % confluence cell growth inhibition, PC3; format: cell-based; settings: Homo sapiens, PC-3, read-out: IC50 values (μM), PC3
Description: as §1

[9] = test system: DU145; experiment: IncuCyte % confluence cell growth inhibition, DU145; format: cell-based; settings: Homo sapiens, DU-145, read-out: IC50 values (μM), DU145
Description: as §1

[10] = Pharmacokinetics in non-tumor bearing BALB/C mice, IV and PO; format: in vivo; settings: for AUClast—D / Cmax—D: dose-normalised; for AUC(0-t) / Cmax / Tmax / half-life: mouse, plasma
Description: FIG. 14A-B are graphs of time (hours) versus plasma concentration (ng/mL) for intravenous (IV) (FIG. 14A) and oral (PO) (FIG. 14B) administration of 15a and 15n over 12 hours. Error bars represent the standard deviation in ng/mL from three independent mice per time point.
Clearance, Cmax, half life, dose/AUC, and bioavailability were calculated by statistical analysis using PHOENIX™ WINNONLIN™ v7.0 (Certara, Princeton, N.J.). The results are shown in FIGS. 14A and 14B and Table 4.

[11] = test system: LAMP cells; experiment: RNA-seq / gene set enrichment and master TF expression in LAMP cells; format: cell-based
Description: FIG. 16A-B are a Gene Set Enrichment Analysis for AR gene pathways (FIG. 16A) and MYC gene pathways (FIG. 16B) in LAMP cells (LNCaP cells engineered with CRISPR to have amplification of the AR enhancer) treated with either 15n or dimethylsulfoxide (DMSO) for 48 hours, followed by RNA-seq.
FIG. 16A-B are Gene Set Enrichment Analyses for AR gene pathways (FIG. 16A) and MYC gene pathways ([…]) in LAMP cells (LNCaP cells engineered with CRISPR (clustered regularly interspaced short palindromic repeats) to have amplification of the AR enhancer) treated with either 15n or DMSO for 48 hours, followed by RNA-seq.
(§2) This AR dominated cluster 1 is often driven by amplification of the distal AR enhancer (Takeda et al., Cell, 2018, 174(2), 422-432).

[12] = test system: LAMP cells; experiment: Growth reduction kinetics in LAMP cells; format: cell-based; settings: 15 μM and 30 μM, FIG. 20
Source text: as §2

[13] = test system: LAPC4 prostate cancer cells; experiment: LAPC4 mouse xenograft tumor volume; format: in vivo, Mice; settings: oral gavage, LAPC4 mouse xenografts, day 17, FIG. 22
Description: FIG. 22 is a graph of tumor volume on day 17 as a percent change from the baseline.
Treatment was given once for 5 days followed by 2 days of rest. Tumor size was monitored by caliper twice weekly. Change from baseline tumor volume was calculated and reported as a waterfall plot. The in vivo activity is shown in FIG. 14, as measured by the percent change from the baseline.

[14] = test system: LuCaP 167; experiment: LuCaP 167 prostate cancer PDX tumor growth; format: in vivo, NSG male mice; settings: 10 mg/kg oral gavage, 5 days on 2 days off, LuCaP 167 PDX, FIG. 23
Description: LuCaP 167 is a well-characterized androgen sensitive prostate cancer (PCa) PDX model established at the University of Washington and has been validated using short tandem repeat (STR) analysis. All preclinical in vivo experiments were performed in accordance with NCI Animal Care and Use Committee approved protocol. Six-week-old NSGmale mice were housed in a sterile, pathogen-free facility and maintained in a temperature-controlled room under a 12-hour light/dark schedule with water and food ad libitum. All mice were operated under sedation with oxygen and isoflurane. Ibuprofen and/or buprenorphine was administered post-surgery. LuCaP 167 was implanted subcutaneously under the left flank of intact mice. When tumors reached an average volume of ˜500 mm^3, mice were randomized and placed in either control group or treatment groups (n=10/group). […] Tumor burden was assessed twice per week by caliper measurement of two diameters of the tumor (L×W=mm^2) and reported as tumor volume ((L×W^2)/2=mm^3). Body weights were assessed using a weighing scale and recorded in grams. At the end-of-treatment (EOT) timepoint, tumor tissues were excised, weighed, and snap frozen for further analysis.

Compound | antagonist or inverse agonist activity on AR transcriptional activity (in words) [1] | activity at 10 µM [1] | IC50 [2] | IC50 [3] | IC50 [4] | IC50 [5] | IC50 [6] | IC50 [7] | IC50 [8] | IC50 [9] | other results
CC1(C)C(=O)N(c2ccc(C#N)c(C(F)(F)F)c2)C(=O)N1Cc1ccc(-c2c[nH]nn2)cc1 [Compound 14a, 4-(3-(4-(1H-1,2,3-triazol-4-yl)benzyl)-4,4-dimethyl-2,5-dioxoimidazolidin-1-yl)-2-(trifluoromethyl)benzonitrile] | reduced the transcriptional activity of the AR well below the expression in the absence of any steroids or ligands | -64% | 44.8 µM | 32.5 µM | 70 µM | 46.5 µM | 65.4 µM | 35.9 µM | 68.5 µM | 84.1 µM | –
CC1(C)C(=O)N(c2ccc(C#N)c(C(F)(F)F)c2)C(=S)N1c1ccc(-c2c[nH]nn2)cc1 [Compound 16a, 4-(3-(4-(1H-1,2,3-triazol-4-yl)phenyl)-4,4-dimethyl-5-oxo-2-thioxoimidazolidin-1-yl)-2-(trifluoromethyl)benzonitrile] | reduced the transcriptional activity of the AR well below the expression in the absence of any steroids or ligands | -22% | 17.1 µM | 21.2 µM | 17.3 µM | 20.7 µM | 33.6 µM | 30.2 µM | 49.2 µM | 39.9 µM | –
CC1(C)C(=O)N(c2cnc(C#N)c(C(F)(F)F)c2)C(=S)N1Cc1ccc(-c2c[nH]nn2)cc1 [Compound 15n] | – | – | – | – | – | – | – | – | – | – | AUClast—D ([10]; IV, 1 mg/kg): 6255.85 kg·ng·h/mL/mg; Cmax—D ([10]; IV, 1 mg/kg): 936.94 kg·ng/mL/mg; AUClast—D ([10]; PO, 20 mg/kg): 4866.48 kg·ng·h/mL/mg; Cmax—D ([10]; PO, 20 mg/kg): 549.09 kg·ng/mL/mg; AUC(0-t) ([10]; IV, 1 mg/kg): 6260 ng·h/mL; Cmax ([10]; IV, 1 mg/kg): 937 ng/mL; Tmax ([10]; IV, 1 mg/kg): 0.5 h; half-life ([10]; IV, 1 mg/kg): 9.13 h; AUC(0-t) ([10]; PO, 20 mg/kg): 97300 ng·h/mL; Cmax ([10]; PO, 20 mg/kg): 11000 ng/mL; Tmax ([10]; PO, 20 mg/kg): 1 h; half-life ([10]; PO, 20 mg/kg): 22.3 h; ATF4 expression ([11]; 48 hours, FIG. 19): greatly reduced; AR target gene set (Gene Set Enrichment Analysis) ([11]; 48 hours, versus DMSO, RNA-seq): down regulated; MYC target gene set (Gene Set Enrichment Analysis) ([11]; 48 hours, versus DMSO, RNA-seq): down regulated; ATF4 driven amino-acid tRNA synthesis pathway ([11]; compared with enzalutamide): able to also downregulate; cell killing compared with enzalutamide [12]: superior cell killing at lower doses than enzalutamide; tumor burden (percent change from baseline tumor volume) [13]: retained its ability to reduce tumor burden; anti-tumor effect (average tumor growth rate) [14]: superior anti-tumor effect over enzalutamide
